Source: ChEMBL document CHEMBL1201862, “PubChem BioAssay data set” (2004)
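The compound was tested at five concentrations on cells cultured in 96-well plates, with a 48-hour exposure period. Here, GI50 denotes the concentration required for 50% inhibition of growth.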 Activity calls are given as the source filed them. Rule as the data show it: active = GI50 up to about 1.1 µM and inactive = higher.

Legend:
Assay in all cases: inhibition of tumour cell growth, NCI panel, 48 h
[1] = test system: LOX IMVI
[2] = test system: SF-539
[3] = test system: U-251
[4] = test system: HT-29
[5] = test system: SK-MEL-2
[6] = test system: XF498
[7] = test system: SK-OV-3
[8] = test system: KM12
[9] = test system: SNB-19
[10] = test system: COLO 205
[11] = test system: RPMI-8226
[12] = test system: TK-10
[13] = test system: OVCAR-5
[14] = test system: SW-620
[15] = test system: RXF 393
[16] = test system: HL-60
[17] = test system: M19-MEL
[18] = test system: 786-0
[19] = test system: SK-MEL-5
[20] = test system: DMS-273
[21] = test system: LXFL 529
[22] = test system: HOP-92
[23] = test system: OVCAR-3
[24] = test system: NCI-H460
[25] = test system: HCT-116
[26] = test system: SF-268
[27] = test system: Malme-3M
[28] = test system: HOP-18
[29] = test system: M14
[30] = test system: DMS-114
[31] = test system: DLD-1
[32] = test system: A549
[33] = test system: NCI-H226
[34] = test system: HOP-62
[35] = test system: ACHN
[36] = test system: NCI-H522
[37] = test system: EKVX
[38] = test system: SN12C
[39] = test system: NCI-H23
[40] = test system: A498
[41] = test system: KM-20L2
[42] = test system: UACC-62
[43] = test system: SF-295
[44] = test system: CAKI-1
[45] = test system: OVCAR-8
[46] = test system: HCC 2998
[47] = test system: SNB-75
[48] = test system: K562
[49] = test system: IGROV-1
[50] = test system: CCRF-CEM
[51] = test system: SK-MEL-28
[52] = test system: OVCAR-4
[53] = test system: MOLT-4
[54] = test system: HCT-15
[55] = test system: UO-31
[56] = test system: UACC-257
[57] = test system: SNB-78

COc1ccc(OC)c(/C=C2\CCc3ccccc3C2=O)c1
GI50 [1]: 4.26 µM (inactive) | GI50 [2]: 2.6 µM (inactive) | GI50 [3]: 3.3 µM (inactive) | GI50 [4]: 0.735 µM (active) | GI50 [5]: 2.93 µM (inactive) | GI50 [6]: 1.24 µM (inactive) | GI50 [7]: 2.58 µM (inactive) | GI50 [8]: 3.05 µM (inactive) | GI50 [9]: 5.6 µM (inactive) | GI50 [10]: 3.18 µM (inactive) | GI50 [11]: 3.6 µM (inactive) | GI50 [12]: 5.16 µM (inactive) | GI50 [13]: 4.14 µM (inactive) | GI50 [14]: 1.12 µM (active) | GI50 [15]: 1.76 µM (inactive) | GI50 [16]: 1.68 µM (inactive) | GI50 [17]: 3.72 µM (inactive) | GI50 [18]: 3.03 µM (inactive) | GI50 [19]: 3.17 µM (inactive) | GI50 [20]: 1.12 µM (active) | GI50 [21]: 6.05 µM (inactive) | GI50 [22]: 1.23 µM (inactive) | GI50 [23]: 2.71 µM (inactive) | GI50 [24]: 3.44 µM (inactive) | GI50 [25]: 6.78 µM (inactive) | GI50 [26]: 4.84 µM (inactive) | GI50 [27]: 3.72 µM (inactive) | GI50 [28]: 4.85 µM (inactive) | GI50 [29]: 3.59 µM (inactive) | GI50 [30]: 1.92 µM (inactive) | GI50 [31]: 5.36 µM (inactive) | GI50 [32]: 2.25 µM (inactive) | GI50 [33]: 3.72 µM (inactive) | GI50 [34]: 2.47 µM (inactive) | GI50 [35]: 7.26 µM (inactive) | GI50 [36]: 1.77 µM (inactive) | GI50 [37]: 3.2 µM (inactive) | GI50 [38]: 5.48 µM (inactive) | GI50 [39]: 3.39 µM (inactive) | GI50 [40]: 2.61 µM (inactive) | GI50 [41]: 2.9 µM (inactive) | GI50 [42]: 1.76 µM (inactive) | GI50 [43]: 3.35 µM (inactive) | GI50 [44]: 4.65 µM (inactive) | GI50 [45]: 4.16 µM (inactive) | GI50 [46]: 2 µM (inactive) | GI50 [47]: 1.1 µM (active) | GI50 [48]: 0.391 µM (active) | GI50 [49]: 11.4 µM (inactive) | GI50 [50]: 2.33 µM (inactive) | GI50 [51]: 5.12 µM (inactive) | GI50 [52]: 6.52 µM (inactive) | GI50 [53]: 2.59 µM (inactive) | GI50 [54]: 3.91 µM

CCCOP1(=O)C=CC(Cl)=C(C)C1 (stereo not drawn)
GI50 [55]: 81.7 µM (inactive) | GI50 [1]: 32.3 µM (inactive) | GI50 [2]: > 46 µM (inactive) | GI50 [3]: 40.1 µM (inactive) | GI50 [4]: 55.3 µM (inactive) | GI50 [5]: 23.9 µM (inactive) | GI50 [6]: 23.6 µM (inactive) | GI50 [7]: > 100 µM (inactive) | GI50 [8]: 20.8 µM (inactive) | GI50 [9]: > 70 µM (inactive) | GI50 [10]: 18.4 µM (inactive) | GI50 [56]: 26.9 µM (inactive) | GI50 [11]: 22.3 µM (inactive) | GI50 [12]: 42.4 µM (inactive) | GI50 [13]: 20.7 µM (inactive) | GI50 [14]: 19.3 µM (inactive) | GI50 [15]: 16 µM (inactive) | GI50 [16]: 7.53 µM (inactive) | GI50 [18]: 27.7 µM (inactive) | GI50 [19]: 45.6 µM (inactive) | GI50 [57]: 53.1 µM (inactive) | GI50 [21]: 23.7 µM (inactive) | GI50 [22]: 33.1 µM (inactive) | GI50 [23]: 27.4 µM (inactive) | GI50 [24]: 50.7 µM (inactive) | GI50 [25]: 17.1 µM (inactive) | GI50 [26]: 46.6 µM (inactive) | GI50 [27]: 21 µM (inactive) | GI50 [28]: 50.4 µM (inactive) | GI50 [29]: 33 µM (inactive) | GI50 [30]: 25.4 µM (inactive) | GI50 [31]: 20.6 µM (inactive) | GI50 [32]: > 54.3 µM (inactive) | GI50 [34]: > 100 µM (inactive) | GI50 [35]: 24.9 µM (inactive) | GI50 [36]: 15.9 µM (inactive) | GI50 [37]: > 51.5 µM (inactive) | GI50 [38]: 69.5 µM (inactive) | GI50 [39]: 30.8 µM (inactive) | GI50 [40]: 82.8 µM (inactive) | GI50 [41]: 48.1 µM (inactive) | GI50 [42]: 19.1 µM (inactive) | GI50 [43]: 45.8 µM (inactive) | GI50 [44]: 32.4 µM (inactive) | GI50 [45]: 21.1 µM (inactive) | GI50 [46]: > 63.1 µM (inactive) | GI50 [47]: 55.8 µM (inactive) | GI50 [48]: 12 µM (inactive) | GI50 [49]: 97.7 µM (inactive) | GI50 [50]: 11.9 µM (inactive) | GI50 [51]: 19.3 µM (inactive) | GI50 [52]: 36.6 µM (inactive) | GI50 [53]: 10.9 µM (inactive) | GI50 [54]: 16.8 µM
